Literature values, collected in US20110207819A1, “Fat Emulsion for Artificially Feeding Seriously Ill Intensive Care Patients” (B. BRAUN MELSUNGEN AG, priority 2008, published 2011).

System: CIP/CIM
Details: intensified insulin therapy; intensive care patients

Substance: insulin
- decrease of the incidence of CIP/CIM: 44%
